How the values were obtained:
Type in all cases: in vivo, human
[1] = tested on: panel of flavorists; experiment: Additional sensory testing for vanilla milk, flavorist panel; settings: 400 ppm mogrosides, 0 to 10 scale, letter in parentheses = Duncan's test group
Description: A panel of flavorists at three locations evaluated vanilla milk containing various mogrosides at a concentration of 400 ppm mogrosides for in-mouth attributes (peak sweetness, upfront sweetness, bitterness, and mouthfeel/thickness) and aftertaste attributes (sweet taste linger), on a 0 to 10 scale. The in-mouth attributes were evaluated while holding the sample in the mouth, while the aftertaste attributes were evaluated after expectoration. The data was analyzed using Duncan's new multiple range test and the scores are provided in the data below in parentheses.

[2] = tested on: panel of volunteers; experiment: Sensory testing for apple drink (panel, in-mouth and aftertaste attributes); set-up: key to Sweetness / Delayed Sweetness / Bitterness / Lingering Sweetness / Overall Off-Taste / Licorice Aftertaste / Bitterness Aftertaste / Mouth Coating: 10-point scale; normalized per attribute to average Reb M scores; settings: for Bitterness / Delayed Sweetness / Global Flavor Intensity / Sweetness / Thickness/Body: in-mouth, average normalized score
Description: (§1) A panel of volunteers evaluated siamenoside I for in-mouth attributes (sweetness, delayed sweetness, sourness, bitterness, global flavor intensity, thickness/body, and astringence) and aftertaste (AT) attribtues (lingering sweetness, overall off-taste intensity, licorice off-tast, bitterness off-taste, and mouth coating) on a 10-point scale. Two replicate sessions were conducted, with a 20 minute break between sessions. There was a 90 second delay between samples within a session. Panelists evaluated all samples in a first session and evaluated the samples again a second time in a second session. Control samples of Rebaudioside M (Reb M) were evaluated during all sessions as a control. Mogroside V was also evaluated and sensory data for mogroside V is provided.
(§2) Data analysis was performed using 2-way analysis of variance (ANOVA) with interaction using Tukey's HSD test. The data was normalized for each attribute according to average scores for Reb M.
The average normalized in-mouth attributes for each sample of apple drink containing siamenoside I was evaluated below.
The average sweetness for each sample of apple drink containing siamenoside I was evaluated below.

[3] = tested on: panel of volunteers; experiment: Sensory testing for vanilla milk; settings: for Licorice Aftertaste / Lingering Sweetness / Mouth Coating / Overall Off-Taste: aftertaste
Description: as §1, §2
A panel of volunteers evaluated vanilla milk for in-mouth attributes and aftertaste attributes according to the methods described in Example 1 above.
The average normalized in-mouth attributes for each sample of vanilla milk was evaluated and the results are provided below.
The average normalized aftertaste attributes for each sample of vanilla milk containing siamenoside I was evaluated and the results are provided below.

[4] = tested on: panel of volunteers; experiment: Sensory testing for sparkling orange beverage
Description: as §1, §2
A panel of volunteers evaluated a sparkling orange beverage containing siamenodie I for in-mouth attributes and aftertaste attributes according to the methods described in Example 1 above.
The average normalized in-mouth attributes for a sample of sparkling orange beverage containing siamenoside I was evaluated and the results are provided below.
The average normalized aftertaste attributes for a sample of sparkling orange beverage containing siamenoside I was evaluated and the results are provided below.

[5] = tested on: panel of flavorists; experiment: Additional sensory testing for lemon-flavored (lemon-lime) beverage, flavorist panel; settings: 600 ppm mogrosides, 0 to 10 scale, letter in parentheses = Duncan's test group
Description: A panel of flavorists at three locations evaluated lemon-lime beverage various mogrosides at a concentration of 600 ppm mogrosides for in-mouth attributes (peak sweetness, upfront sweetness, bitterness, and mouthfeel/thickness) and aftertaste attributes (sweet taste linger), on a 0 to 10 scale. The in-mouth attributes were evaluated while holding the sample in the mouth, while the aftertaste attributes were evaluated after expectoration.

[6] = tested on: expert panelists; experiment: Expert panelists' comparison of mogrosides with stevia; settings: 'Examples 4 and 5', in words
[7] = tested on: panel of volunteers; experiment: Sensory testing for lemon-lime carbonated soft drink; set-up: key to Sweetness / Delayed Sweetness / Bitterness / Lingering Sweetness / Overall Off-Taste / Licorice Aftertaste / Bitterness Aftertaste: 10-point scale; scores normalized to average Reb M scores
Description: as §1, §2
A panel of volunteers evaluated the siamenoside I-containing lemon-lime carbonated soft drink for in-mouth attributes and aftertaste attributes according to the methods described in Example 1 above.
The average normalized in-mouth attributes for a sample of lemon-lime carbonated soft drink having […] was evaluated below.
The average normalized aftertaste attributes for a sample of lemon-lime carbonated soft drink having siamenoside I was evaluated below.

[8] = aftertaste, after expectoration
[9] = 250 ppm (mogroside V 250 mg [sic]), aftertaste, 10-point scale
[10] = 250 ppm (mogroside V 250 mg [sic]), 10-point scale
[11] = 500 ppm (mogroside V 500 mg [sic]), aftertaste, 10-point scale
[12] = 500 ppm (mogroside V 500 mg [sic]), 10-point scale
[13] = 200 ppm (mogroside V 200 mg [sic]), average normalized score, 10-point scale
[14] = 200 ppm (mogroside V 200 mg [sic]), in-mouth, average normalized score, 10-point scale
[15] = 400 ppm (mogroside V 400 mg [sic]), average normalized score, 10-point scale
[16] = 400 ppm (mogroside V 400 mg [sic]), in-mouth, average normalized score, 10-point scale
[17] = at both 200 ppm and 400 ppm, in words
[18] = orange sparkling beverage, in words
[19] = sparkling orange beverage, 250 ppm (mogroside V 250 mg [sic]), aftertaste, average normalized score, 10-point scale
[20] = sparkling orange beverage, 250 ppm (mogroside V 250 mg [sic]), in-mouth, average normalized score, 10-point scale
[21] = 600 ppm (mogroside V 600 mg [sic]), aftertaste, average normalized score, 10-point scale
[22] = 600 ppm (mogroside V 600 mg [sic]), in-mouth, average normalized score, 10-point scale

C[C@H](CC[C@@H](O[C@@H]1O[C@H](CO[C@@H]2O[C@H](CO)[C@@H](O)[C@H](O)[C@H]2O)[C@@H](O)[C@H](O)[C@H]1O[C@@H]1O[C@H](CO)[C@@H](O)[C@H](O)[C@H]1O)C(C)(C)O)[C@H]1CC[C@@]2(C)[C@@H]3CC=C4[C@@H](CC[C@H](O[C@@H]5O[C@H](CO)[C@@H](O)[C@H](O)[C@H]5O)C4(C)C)[C@]3(C)[C@H](O)C[C@]12C [siamenoside I]
Sweet Linger [1, 8]: 5.875 (a)
Bitterness ([1]; in-mouth): 1.688 (a)
Mouthfeel/Thickness ([1]; in-mouth): 5.000 (ab)
Peak Sweetness ([1]; in-mouth): 7.375 (a)—
Upfront Sweetness ([1]; in-mouth): 5.938 (ab)
Bitterness Aftertaste [2, 9]: 1.3
Licorice Aftertaste [2, 9]: 2.2
Lingering Sweetness [2, 9]: 3.2
Overall Off-Taste [2, 9]: 2.5
Bitterness [2, 10]: 1.5
Delayed Sweetness [2, 10]: 2.3
Global Flavor Intensity [2, 10]: 3.5
Sweetness [2, 10]: 4.0
Thickness/Body [2, 10]: 1.2
Licorice Aftertaste [2, 11]: 2.7
Lingering Sweetness [2, 11]: 4.7
Mouth Coating [2, 11]: 2.4
Overall Off-Taste [2, 11]: 3.4
Bitterness [2, 12]: 1.7
Delayed Sweetness [2, 12]: 3.2
Global Flavor Intensity [2, 12]: 4.4
Sweetness [2, 12]: 5.3
Thickness/Body [2, 12]: 1.6
global flavor intensity compared with mogroside V ([2]; in words): higher global flavor intensity
in-mouth and aftertaste profile compared with Reb M ([2]; in words): comparable to that of Reb M
overall off-taste compared with mogroside V ([2]; in words): lower overall off-taste
sweetness compared with mogroside V ([2]; in words): sweeter
Licorice Aftertaste [3, 13]: 1.2
Lingering Sweetness [3, 13]: 3.3
Mouth Coating [3, 13]: 3.3
Overall Off-Taste [3, 13]: 1.8
Astringence [3, 14]: 0.7
Delayed Sweetness [3, 14]: 2.2
Fattiness [3, 14]: 3.5
Sourness [3, 14]: 1.1
Sweetness [3, 14]: 5.6
Licorice Aftertaste [3, 15]: 1.7
Lingering Sweetness [3, 15]: 4.8
Mouth Coating [3, 15]: 0.5
Overall Off-Taste [3, 15]: 2.4
Astringence [3, 16]: 0.8
Bitterness [3, 16]: 0.8
Delayed Sweetness [3, 16]: 2.6
Fattiness [3, 16]: 4.3
Global Flavor Intensity [3, 16]: 4.6
Sourness [3, 16]: 0.7
Sweetness [3, 16]: 7.7
lingering sweetness compared with Reb M [3, 17]: increased
sweetness compared with Reb M [3, 17]: increased
bitterness compared with mogroside V ([3]; in words): lower bitterness
delayed sweetness compared with mogroside V ([3]; in words): higher
global flavor intensity compared with mogroside V ([3]; in words): higher global flavor intensity
sweetness compared with mogroside V ([3]; in words): higher
delayed sweetness compared with Reb M [4, 18]: slightly higher
in mouth and aftertaste profile compared with Reb M [4, 18]: comparable to that of Reb M
sweetness compared with Reb M [4, 18]: slightly higher
sweetness compared with mogroside V [4, 18]: higher sweetness
Licorice Aftertaste [4, 19]: 2.8
Lingering Sweetness [4, 19]: 4.4
Mouth Coating [4, 19]: 2.9
Overall Off-Taste [4, 19]: 3.6
Delayed Sweetness [4, 20]: 3.7
Sweetness [4, 20]: 5.9
Sweet Linger [5, 8]: 4.429 (bc)
Bitterness ([5]; in-mouth): 2.571 (a)
Mouthfeel/Thickness ([5]; in-mouth): 3.429 (ab)
Peak Sweetness ([5]; in-mouth): 6.571 (b)—
Upfront Sweetness ([5]; in-mouth): 4.286 (b)
bitter aftertaste compared with stevia [6]: lower bitter aftertaste
licorice aftertaste compared with stevia [6]: lower licorice aftertaste
mouthfeel compared with stevia [6]: better mouthfeel
Bitterness Aftertaste [7, 21]: 1.3
Licorice Aftertaste [7, 21]: 3.0
Lingering Sweetness [7, 21]: 4.4
Overall Off-Taste [7, 21]: 4.1
Bitterness [7, 22]: 1.6
Delayed Sweetness [7, 22]: 4.1
Global Flavor Intensity [7, 22]: 4.7
Sweetness [7, 22]: 6.0
bitterness compared with Reb M ([7]; 600 ppm, in words): overall lower bitterness
global flavor intensity compared with Reb M ([7]; 600 ppm, in words): same
sweetness compared with Reb M ([7]; 600 ppm, in words): same
bitterness aftertaste compared with mogroside V ([7]; in words): lower bitterness aftertaste
bitterness compared with mogroside V ([7]; in words): lower bitterness
global flavor intensity compared with mogroside V ([7]; in words): higher global flavor intensity
in mouth and aftertaste profile compared with Reb M ([7]; in words): comparable to that of Reb M
sweetness compared with mogroside V ([7]; in words): higher sweetness
